Experimental data: a melting point compilation (Tetko et al.; mined from patent text by program, amines drawn as free bases though some values may be those of a salt)

With `c1cn(Cc2nc(-c3ccc4c(c3)OCO4)c3cc4c(cc3n2)OCO4)cn1` as the molecule, how does the melting point read?
The melting point was 182 to 185 °C.

Which melting point does the source give for `Nc1cc(F)c(NCC(O)CO)cc1[N+](=O)[O-]` (stereo not drawn) here?
The melting point was 129 to 130 °C.

For `CC1SC(=O)NN=C1c1cccc([N+](=O)[O-])c1` (stereo not drawn), which melting point is on record?
The melting point was 169 to 172 °C.

Which melting point does the source give for `C=Cc1cn(-c2c(Cl)cc(C(F)(F)F)cc2Cl)c2ccccc12` here?
Its melting point is 85 to 87 °C.

Which melting point does the source give for `CC1(C)CC(=O)N(CC(COc2ccc(-c3ccc(C#N)cc3)cc2)N(O)C=O)C(=O)C1` (stereo not drawn) here?
Its melting point is 121 °C.

Which melting point does the source give for `COc1ccc(Cl)cc1-c1c(N)c(=O)[nH]c2cc(C(F)(F)F)cc(C(F)(F)F)c12` here?
The melting point was 265 to 267 °C.

For `CC(c1oc2ccc(F)cc2c(=O)c1-c1cccc(F)c1)n1nc(-c2cccc(O)c2)c2c(N)ncnc21` (stereo not drawn), which melting point is on record?
The melting point was 193 to 196 °C.

Which melting point does the source give for `Cc1ccc2cccc(OCc3c(Cl)ccc(C(=O)O)c3Cl)c2n1` here?
Its melting point is 267 to 270 °C.

Which melting point does the source give for `Cc1cnc(-c2cc(=S)ss2)cn1` here?
The melting point was 192 °C.

For `CC1(Cl)C(=O)N(c2cc(Cl)cc(Cl)c2)N=C1Cl` (stereo not drawn), which melting point is on record?
The melting point was 77 °C.

For `Nc1nc(SCc2ccccc2)nn1-c1nnc(-c2ccccc2O)s1`, which melting point is on record?
Its melting point is 198 to 201 °C.

With `CC(C)C(C)(N)C(N)=O` (single isomer, unassigned; (+)) as the molecule, how does the melting point read?
The melting point was 74.5 to 76 °C.

For `CCN(CC)CCOc1ccc(-c2sc3ccccc3c2C(=O)c2cc(C)cc(C)c2)cc1`, which melting point is on record?
Its melting point is 138 to 142 °C.

Which melting point does the source give for `Cn1ncc(C(=O)N2CCOCC2)c1C(=O)Nc1ccc2nc(-c3cccnc3)nn2c1` here?
Its melting point is 229 °C.

For `CN1CCC(c2c[nH]c3ccc(Sc4ccc(Cl)cc4)cc23)CC1`, which melting point is on record?
Its melting point is 148 to 150 °C.

Which melting point does the source give for `CCOc1cc(CN2C(=O)c3ccccc3C2=O)c2c(c1)Oc1c(ccc(OCC)c1CO[Si](C)(C)C(C)(C)C)N2CC` here?
The melting point was 158 to 159 °C.

For `O=C1c2ccc(N=CN3CCCCC3)cc2C(=O)c2ccc(N=CN3CCCCC3)cc21`, which melting point is on record?
The melting point was 229 to 233 °C.

For `CN(C)c1ccc(NC(=O)N(CCC2=CCCCC2)C[C@H]2CC[C@H](CN(CCC3=CCCCC3)C(=O)Nc3ccc(N(C)C)cc3)CC2)cc1`, which melting point is on record?
The melting point was 152 to 155 °C.

Which melting point does the source give for `CCC(C)Sc1cc(C(F)(F)F)ccc1C(=O)O` (stereo not drawn) here?
The melting point was 99.8 to 101 °C.

For `Cc1cc(-c2cnn3c(C(F)(F)F)cc(-c4cccc(C(F)(F)F)c4)nc23)cc(C)n1`, which melting point is on record?
The melting point was 236 °C.

Which melting point does the source give for `O=C1CCCC(O)=C1NC(=O)C1CC1` here?
The melting point was 82 °C.

For `Cc1ccc(CC2=NOS(=O)N2)cc1C` (stereo not drawn), which melting point is on record?
Its melting point is 127 to 130 °C.

For `Cc1ccc(Cl)c(NS(=O)(=O)C2(NC=O)N=CN=N2)c1Cl` (stereo not drawn), which melting point is on record?
Its melting point is 275 to 279 °C.

For `OCC1OC(n2cnc3c2N=CNCC3O)C(O)C1O` (stereo not drawn), which melting point is on record?
The melting point was 178 to 183 °C.

With `CCCCCCCCC(SCCCCCC)C(=O)Nc1c(SC)cc(NC(C)=O)c2ncc(C)cc12` (stereo not drawn) as the molecule, how does the melting point read?
Its melting point is 128 to 131 °C.

Which melting point does the source give for `OCCCc1cn(-c2ccc(C(F)(F)F)cn2)nc1-c1ccccc1` here?
Its melting point is 99 to 100 °C.

With `CCC(C)(C)NC(=S)Nc1cc(Br)cc(Br)c1` as the molecule, how does the melting point read?
The melting point was 147 to 149 °C.

With `COc1ccc(NC2=NN(c3cccc(C(F)(F)F)c3)CC2)cc1` as the molecule, how does the melting point read?
The melting point was 127 to 128 °C.

With `CCN1CCCC1CNC(=O)c1c(Br)c(Br)c([N+](=O)[O-])c2c1OCCO2` (stereo not drawn) as the molecule, how does the melting point read?
Its melting point is 213 °C.

With `c1nc(CSCCc2ccc3c(c2)OCO3)c[nH]1` as the molecule, how does the melting point read?
Its melting point is 81 to 83 °C.

With `CC12CCC3c4ccc(O)cc4CCC3(C=C(F)F)C1CCC2O` (stereo not drawn) as the molecule, how does the melting point read?
The melting point was 154 to 156 °C.

For `CN1CCN(C(=O)c2ccc(-c3cnc4c(c3)N(Cc3cc(F)ccc3F)CC(C)(C)N4)cc2)CC1`, which melting point is on record?
The melting point was 191 to 192 °C.

For `CC1(C2CCCC2)Cc2cc(OS(=O)(=O)C(F)(F)F)c(Cl)c(Cl)c2C1=O` (single isomer, unassigned; (+)), which melting point is on record?
The melting point was 104 to 106 °C.

Which melting point does the source give for `CCCN1C(=O)N(C2CCN(Cc3cccc(CO)c3)CC2)C(c2ccccc2)c2ccccc21` (stereo not drawn) here?
The melting point was 108 to 112 °C.

For `CCC(=O)Oc1cc(OC)cc(OC)c1C(=O)C=Cc1ccccc1`, which melting point is on record?
The melting point was 116 to 117 °C.

With `CCOc1ccc(S(=O)(=O)Cl)cc1C(=O)O` as the molecule, how does the melting point read?
Its melting point is 108 to 110 °C.

Which melting point does the source give for `N#Cc1cnc2ccc(/C=C/CCN3CCOCC3)cc2c1Nc1ccc(Cl)cc1Cl` here?
The melting point was 115 to 116 °C.

With `CNc1[nH]c(-c2ccccc2)c(C)c1C#N` as the molecule, how does the melting point read?
Its melting point is 138 to 139 °C.
